From patent US20080161327A1, “Substituted 9-Alkyladenines and the Use Thereof” (Aderis Pharmaceuticals, Inc., priority 2005, published 2008)
Like-named read-outs stand apart in the source and are kept apart here.

How the values were obtained:
[1] = molecular target: T1, A2A (h) adenosine receptor (Homo sapiens, UniProt P29274); assay: Human recombinant adenosine receptor binding, A2A (h), [3H]CGS 21680
T1 construct: expressed in transfected cells
Experimental: (§1) The compounds of the present invention were subjected to in vitro human recombinant adenosine receptor binding assays. Scintillation counting was used as the method of detection.
(§2) The IC50 values (concentration causing a half-maximal inhibition of control specific binding) and Hill coefficients (nH) were determined by non-linear regression analysis of the competition curves using Hill equation curve fitting (Motulsky, H. and Christopoulos, A., Fitting Models to Biological Data Using Linear and Nonlinear Regression, GraphPad Software Inc. (2003)).
(§3) The inhibition constants (Ki) were calculated from the Cheng Prusoff equation (Motulsky, H. and Christopoulos, A., supra).

[2] = molecular target: T2, A1 (h) (agonist site) adenosine receptor (Homo sapiens, UniProt P30542); assay: Human recombinant adenosine receptor binding, A1 (h) (agonist site), [3H]CCPA; conditions: for Ki / IC50 / nH (Hill coefficient), A1 (h) (agonist site): [3H]CCPA, Table 5; for Ki: Cheng Prusoff
T2 construct: expressed in transfected cells
T2 sequence (P30542 1-326): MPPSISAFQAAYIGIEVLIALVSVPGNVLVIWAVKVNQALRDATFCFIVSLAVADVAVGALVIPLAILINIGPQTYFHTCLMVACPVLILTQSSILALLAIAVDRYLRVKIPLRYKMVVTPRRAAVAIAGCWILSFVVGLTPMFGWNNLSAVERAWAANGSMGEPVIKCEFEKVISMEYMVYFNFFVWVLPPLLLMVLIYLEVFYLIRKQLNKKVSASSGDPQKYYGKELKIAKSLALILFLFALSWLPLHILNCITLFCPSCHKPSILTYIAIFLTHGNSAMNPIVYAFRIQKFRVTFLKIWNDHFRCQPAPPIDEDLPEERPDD
Experimental: as §1, §2, §3

[3] = molecular target: T3, A1 (h) adenosine receptor (Homo sapiens, UniProt P30542); assay: Human recombinant adenosine receptor binding, A1 (h), [3H]DPCPX; conditions: for A1 Selectivity vs. A2A / A1 Selectivity vs. A2B / A1 Selectivity vs. A3: ratio of Ki
T3 construct: expressed in transfected cells
T3 sequence (P30542 1-326): T2 sequence (P30542 1-326)
Experimental: as §1, §2, §3

adenosine A1 receptors = molecular target: T4, adenosine A1 receptors (Cavia porcellus, UniProt P47745); assay: Adenosine A1 in vitro functional test, negative inotropic response in left atria (Schild plot); assay type: cell-based; conditions: guinea pig left atria, agonist NECA or CPA, read-out: KB (antagonist dissociation constant)
T4 construct: from tissue; host or cells: guinea pig left atria
T4 sequence (P47745 1-326): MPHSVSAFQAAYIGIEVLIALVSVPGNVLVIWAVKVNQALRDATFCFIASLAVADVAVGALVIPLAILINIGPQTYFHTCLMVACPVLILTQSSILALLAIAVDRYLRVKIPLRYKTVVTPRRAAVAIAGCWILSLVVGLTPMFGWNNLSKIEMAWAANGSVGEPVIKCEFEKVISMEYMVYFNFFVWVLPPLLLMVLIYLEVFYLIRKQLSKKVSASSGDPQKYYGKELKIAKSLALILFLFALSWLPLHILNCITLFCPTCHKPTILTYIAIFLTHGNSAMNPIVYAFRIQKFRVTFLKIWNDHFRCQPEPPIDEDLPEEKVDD
Experimental: A1 assay—Negative inotropic response (Barrett, R. J. et al., J. Pharmacol. Exp. Ther. 265:227-236 (1993)): Guinea pig left atria were placed in organ baths filled with Krebs Henseleit solution gassed with 95% O2 and 5% CO2 and maintained at a temperature of 31° C. An initial resting tension of 1 g was placed on each tissue, which was allowed to equilibrate. Atria were stimulated electrically to produce twitch responses. A fixed concentration of the test compound was added and the tissue was allowed to equilibrate for 1 hour before cumulative additions of an adenosine agonist (either 5′-N-ethylcarboxamidoadenosine (NECA) or N^6-cyclopentyladenosine (CPA)) to generate a dose response curve. This procedure was repeated with different concentrations of test compounds to generate a family of dose response curves. Schild plots were constructed from the resultant concentration-effect curves, and KB (antagonist dissociation constant) values were obtained. The results presented in Table 9 are expressed as KB values (concentrations of test compound such that one-half of the tissue adenosine receptor population is occupied by the test compound).

[4] = molecular target: T5, A3 (h) adenosine receptor (Homo sapiens, UniProt P0DMS8); assay: Human recombinant adenosine receptor binding, A3 (h), [3H]AB-MECA; conditions: for Ki: Table 8, read-out: Affinity Ki, A3
T5 construct: expressed in transfected cells
T5 sequence (P0DMS8 1-318): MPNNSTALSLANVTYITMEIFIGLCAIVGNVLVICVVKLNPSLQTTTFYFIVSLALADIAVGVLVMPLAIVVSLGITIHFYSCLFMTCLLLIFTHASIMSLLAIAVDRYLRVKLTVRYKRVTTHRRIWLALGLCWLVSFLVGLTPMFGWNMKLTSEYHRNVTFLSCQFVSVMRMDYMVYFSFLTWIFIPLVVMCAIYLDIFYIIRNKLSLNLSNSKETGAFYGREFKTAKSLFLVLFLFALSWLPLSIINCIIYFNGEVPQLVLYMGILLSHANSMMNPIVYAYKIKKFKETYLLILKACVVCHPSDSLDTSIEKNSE
Experimental: as §1, §2, §3

[5] = molecular target: T6, A2B (h) adenosine receptor (Homo sapiens, UniProt P29275); assay: Human recombinant adenosine receptor binding, A2B (h), [3H]MRS 1754; conditions: for Ki: Table 8, read-out: Affinity Ki, A2B
T6 construct: expressed in transfected cells
T6 sequence (P29275 1-332): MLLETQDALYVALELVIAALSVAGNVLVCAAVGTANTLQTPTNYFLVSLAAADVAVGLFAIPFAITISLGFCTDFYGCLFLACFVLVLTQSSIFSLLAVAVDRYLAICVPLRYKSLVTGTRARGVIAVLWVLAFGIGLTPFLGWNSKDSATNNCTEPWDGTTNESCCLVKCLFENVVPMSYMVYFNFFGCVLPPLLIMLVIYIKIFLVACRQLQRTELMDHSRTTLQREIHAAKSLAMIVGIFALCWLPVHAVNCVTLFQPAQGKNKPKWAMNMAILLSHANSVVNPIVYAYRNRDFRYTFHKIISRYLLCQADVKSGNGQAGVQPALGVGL
Experimental: as §1, §2, §3

[6] = Cheng Prusoff, Table 6, read-out: Ki, A2A (h)
[7] = Table 8, read-out: Affinity Ki, A2A
[8] = Table 8, read-out: Affinity Ki, A1
[9] = [3H]DPCPX, Cheng Prusoff, Table 5, read-out: Ki, A1 (h)

T1 sequence (P29274 whole entry): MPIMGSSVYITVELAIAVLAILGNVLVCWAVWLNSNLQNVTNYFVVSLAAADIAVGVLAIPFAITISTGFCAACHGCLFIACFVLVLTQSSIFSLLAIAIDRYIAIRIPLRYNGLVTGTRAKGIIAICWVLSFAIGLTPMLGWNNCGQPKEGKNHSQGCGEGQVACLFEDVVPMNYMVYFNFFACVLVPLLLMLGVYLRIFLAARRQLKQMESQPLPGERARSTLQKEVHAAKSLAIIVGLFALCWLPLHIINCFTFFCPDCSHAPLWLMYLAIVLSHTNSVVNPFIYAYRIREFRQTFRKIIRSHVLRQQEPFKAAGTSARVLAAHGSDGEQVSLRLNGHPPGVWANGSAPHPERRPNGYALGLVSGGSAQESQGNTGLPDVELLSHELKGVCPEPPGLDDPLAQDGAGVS

Ki [1, 6] [nM]	IC50 ([1]; Table 6) [nM]	nH (Hill coefficient), A2A (h) ([1]; Table 6)	Ki [1, 7] [nM]	Ki [2] [nM]	IC50 [2] [nM]	nH (Hill coefficient), A1 (h) (agonist site) [2]	Ki [3, 8] [nM]	Ki [3, 9] [nM]	IC50 ([3]; [3H]DPCPX, Table 5) [nM]	nH (Hill coefficient), A1 (h) ([3]; [3H]DPCPX, Table 5)	A1 Selectivity vs. A2A ([3]; Table 8)	A1 Selectivity vs. A2B ([3]; Table 8)	A1 Selectivity vs. A3 ([3]; Table 8)	Kb (adenosine A1 receptors) [nM]	Ki [4] [nM]	Ki [5] [nM]	Structure (SMILES)	further results
82000	100000	1.4	82000	1800	4300	1.0	1100	1100	1800	1.0	75	>3000	>3000	300	> 100000	> 100000	CC(C)N(C)c1nc2c(NC3CC4CC3CC4OCCCS(=O)(=O)O)ncnc2n1C (single isomer, unassigned) [1 (−isomer)]	–
2600	3200	0.8	2600	85	210	1.3	32	32	52	0.9	81	>3000	>3000	32000	> 100000	> 100000	CC(C)N(C)c1nc2c(NC3CC4CC3CC4OCCCS(=O)(=O)O)ncnc2n1C (single isomer, unassigned) [Compound 1 (+isomer)]	IC50 ([4]; Table 7, N.C. = not calculable, less than 25% inhibition at the highest tested concentration): > 100000 nM
–	–	–	–	–	–	–	–	–	–	–	–	–	–	85000	–	–	CC(C)N(C)c1nc2c(N[C@H]3CC[C@H](OCCCS(=O)(=O)O)CC3)ncnc2n1C [Compound 6, N^6-[trans-4′-(^3-sulfopropoxy)cyclohexyl]-8-isopropylmethylamino-9-methyladenine]	–
–	–	–	–	–	–	–	–	–	–	–	–	–	–	–	–	–	CC(C)N(C)c1nc2c(NC3CC4CC3CC4O)[n+](C)cnc2n1C.[Cl-] (stereo not drawn) [Compound 14, N^6-(endo-5′-hydroxynorbornyl)-1-methyl-8-isopropylmethylamino-9-methyladenine chloride]	Percent Inhibition of Control Specific Binding, A2A (h) ([1]; compound at 1×10^−5M, HEK-293 cells, [3H]CGS 21680 6 nM): −9; Percent Inhibition of Control Specific Binding, A1 (h) (agonist site) ([2]; compound at 1×10^−5M, CHO cells, [3H]CCPA 1 nM): 18; Percent Inhibition of Control Specific Binding, A1 (h) ([3]; compound at 1×10^−5M, CHO cells, [3H]DPCPX 1 nM): −1; Percent Inhibition of Control Specific Binding, A3 (h) ([4]; compound at 1×10^−5M, HEK-293 cells, [3H]AB-MECA 0.15 nM): 5; Percent Inhibition of Control Specific Binding, A2B (h) ([5]; compound at 1×10^−5M, HEK-293 cells, [3H]MRS 1754 0.5 nM): 5
